Here are results for three molecules from PubChem BioAssay (NCI).

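Five concentrations, 48 hours, 96-well plates. TGI: total growth inhibition.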

Some test systems named below: CAKI-1 renal; HL-60(TB) leukemia; HOP-62 NSCLC; HS 578T breast; HT29 colon; IGROV1 ovarian; K-562 leukemia; KM12 colon; LOX IMVI melanoma; MDA-MB-231 breast; MDA-MB-435; MDA-N; NCI-H460 lung; OVCAR-3 ovarian; OVCAR-4 ovarian; PC-3 prostate; RXF 393 renal; SK-MEL-28 melanoma; SNB-75 CNS; U251 CNS.
Holding throughout (test): inhibition of tumour cell growth, NCI panel, 48 h

With `O=C(NCCCCCCCN1CCCCCCC1)C(C1CCCCC1)C1CCCCC1`, the TGI in the experiment on CAKI-1 renal worked out at 20.6 µM; in the experiment with HL-60(TB) leukemia it was 22.2 µM; with HOP-62 NSCLC, 14.4 µM; with HS 578T breast, 51.5 µM; in the experiment with HT29 colon, 11.7 µM; with IGROV1 ovarian, 27.3 µM. Besides, the TGI in the experiment on K-562 leukemia was found to be 11.4 µM; in the experiment with KM12 colon it was 27.5 µM; in the experiment on LOX IMVI melanoma, 26.2 µM; in the experiment with MDA-MB-231 breast, 20.8 µM; with MDA-MB-435, 22.2 µM; in the experiment on MDA-N, 21.8 µM. The TGI in the experiment on NCI-H460 lung was 23.6 µM; in the experiment on OVCAR-3 ovarian, 18.6 µM; in the experiment on OVCAR-4 ovarian, 25.4 µM; in the experiment on PC-3 prostate, 21.1 µM; with RXF 393 renal, 17 µM; in the experiment on SK-MEL-28 melanoma, 16.3 µM. Also, the TGI in the experiment on SNB-75 CNS stood at 23.1 µM; in the experiment with U251 CNS it was 20.8 µM.
As for `COc1ccc(-n2c(C)nc3ccc(NC4OC(CO)C(O)C(O)C4O)cc3c2=O)cc1` (stereo not given), the TGI in the experiment on CAKI-1 renal, in the experiment on HL-60(TB) leukemia, with HOP-62 NSCLC, with HS 578T breast, in the experiment with HT29 colon and with IGROV1 ovarian was above 100 µM throughout. Moreover, the TGI with K-562 leukemia, in the experiment with KM12 colon, in the experiment with LOX IMVI melanoma, with MDA-MB-231 breast, with MDA-MB-435 and in the experiment on MDA-N was above 100 µM in each case. In addition, the TGI with NCI-H460 lung, with OVCAR-3 ovarian, in the experiment with OVCAR-4 ovarian, with PC-3 prostate, in the experiment with RXF 393 renal and with SK-MEL-28 melanoma was above 100 µM each time. For the same molecule, the TGI with SNB-75 CNS and in the experiment with U251 CNS was above 100 µM throughout.
`CSc1nc2c3ccccc3ccn2c1C(=O)N/N=C/c1ccccc1`: the TGI in the experiment on CAKI-1 renal was above 40 µM; in the experiment with HL-60(TB) leukemia, above 100 µM; in the experiment with HOP-62 NSCLC, 27.2 µM; in the experiment on HS 578T breast, above 71.6 µM; with HT29 colon, above 100 µM; in the experiment with IGROV1 ovarian, above 100 µM. Further, the TGI with K-562 leukemia was above 100 µM; in the experiment with KM12 colon, above 100 µM; in the experiment on LOX IMVI melanoma it was above 100 µM; with MDA-MB-231 breast, 40.8 µM; in the experiment on MDA-MB-435, above 100 µM; with MDA-N, above 100 µM. In addition, the TGI in the experiment on NCI-H460 lung is above 73.7 µM; with OVCAR-3 ovarian it was 37.4 µM; with OVCAR-4 ovarian, 39.1 µM; in the experiment with PC-3 prostate, above 100 µM; in the experiment with RXF 393 renal, above 79.4 µM; in the experiment with SK-MEL-28 melanoma it was above 100 µM. For the same molecule, the TGI in the experiment on SNB-75 CNS is above 71.2 µM; with U251 CNS it was 37.7 µM.
